IC50 data for 32 molecules are collected here from patent US11827628B2, “Compositions and methods for inhibition of the JAK pathway” (Rigel Pharmaceuticals, Inc., priority 2005, dated 2023).

For this test, the system named is IL-4 stimulated expression of CD23 in human Ramos B cells (JAK-1 and JAK-3). The test is described as follows: Assay for Ramos B-Cell Line Stimulated with IL-4 (CD23 upregulation, FACS). Type of test: cell-based. Particulars: read-out: IC50, Example 41. An outline of the steps:
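Human Ramos B cells in RPMI with 5% serum were pre-incubated with compound or DMSO for 1 h at 37 °C, then stimulated with IL-4 at a final 50 units/mL for 20-24 h. CD23 upregulation was measured by anti-CD23-PE staining and flow cytometry, and IC50 values were calculated.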

Where [1] appears, read: Ramos B cells stimulated with IL-4, CD23 expression by FACS.
Where [2] appears, read: Homo sapiens, Ramos, Ramos B cells stimulated with IL-4, CD23 expression by FACS.

Each structure is given as a SMILES string. Read-outs that look alike come from different tables or passages of the source.

By IC50 is commonly meant the concentration needed to halve the response being measured. As for `CCN(CC)CCNS(=O)(=O)c1ccc(Nc2ncc(F)c(Nc3ccc(Cc4ccncc4)cc3)n2)cc1` [III-72, N2-[4-(2-N,N-Diethylaminoethyl)aminosulfonylphenyl)-5-fluoro-N4-[4-(4-pyridinylmethyl)phenyl]-2,4-pyrimidinediamine], the IC50 (Ramos B-cell line stimulated with IL-4, CD23 expression by FACS) stood at 1950 nM. As for `CNS(=O)(=O)c1cc(Nc2ncc(F)c(NCCc3ccc(-n4ccnc4)cc3)n2)ccc1C` [III-89, 5-Fluoro-N2-[3-(N-methylaminosulfony)-4-methylphenyl]-N4-[4-(1-imidazolyl)phenethyl]-2,4-pyrimidinediamine], under setting [1], the IC50 was found to be 115 nM. Consider `COc1ccc(Nc2ncc(F)c(Nc3ccc(CN4CCOCC4)cc3)n2)cc1S(N)(=O)=O` [III-105, N2-(3-Aminosulfonyl-4-methyleneoxyphenyl)-5-fluoro-N4-(4-N-morpholinomethylenephenyl)-2,4-pyrimidinediamine], for which the IC50 under setting [1] was 1280 nM.

On to `COc1ccc(Nc2ncc(F)c(Nc3ccc(CN4CCS(=O)(=O)CC4)cc3)n2)cc1S(N)(=O)=O` [III-112, N2-(3-Aminosulfonyl-4-methyloxyphenyl)-5-fluoro-N4-{4-[(1,1-dioxothiomorpholin-4-yl-)methyl]phenyl}-2,4-pyrimidinediamine], for which the IC50 under setting [1] is 2480 nM.

As for `NC(=O)NCc1cccc(Nc2nc(Nc3cccc(S(N)(=O)=O)c3)ncc2F)c1` [III-114, N4-(3-aminocarbonylaminomethyl)phenyl-N2-(3-aminosulfonyl)phenyl-5-fluoro-2,4-pyrimidinediamine], the IC50 under setting [1] stood at 2680 nM. Consider `Cc1ccc(Nc2ncc(F)c(Nc3cccc(CNC(N)=O)c3)n2)cc1S(N)(=O)=O` [III-115, N4-(3-aminocarbonylaminomethyl)phenyl-N2-(3-aminosulfonyl-4-methyl)phenyl-5-fluoro-2,4-pyrimidinediamine], for which the IC50 under setting [1] stood at 1650 nM. As for `CCNC(=O)NCc1cccc(Nc2nc(Nc3cccc(S(N)(=O)=O)c3)ncc2F)c1` [III-117, N2-(3-aminosulfonyl)phenyl-N4-(3-ethylaminocarbonylaminomethyl)phenyl-5-fluoro-2,4-pyrimidinediamine], the IC50 under setting [1] turned out to be 397 nM.

As to `CCNC(=O)NCc1ccc(Nc2nc(Nc3ccc(S(N)(=O)=O)cc3)ncc2F)cc1` [III-119, N2-(4-Aminosulfonylphenyl)-N4-(4-ethylaminocarbonylaminomethylphenyl]-5-fluoro-2,4-pyrimidinediamine], the IC50 under setting [2] was found to be 1300 nM.

With `CCNC(=O)NCCc1ccc(Nc2nc(Nc3ccc(S(N)(=O)=O)cc3)ncc2F)cc1` [III-122, N2-(4-aminosulfonyl)phenyl-N4-[4-(2-ethylaminocarbonylamino)ethyl]phenyl-5-fluoro-2,4-pyrimidinediamine], under setting [1], the IC50 turned out to be 539 nM.

As for `CCNC(=O)NCCc1ccc(Nc2nc(Nc3ccc(C)c(S(N)(=O)=O)c3)ncc2F)cc1` [III-124, N2-(3-aminosulfonyl-4-methyl)phenyl-N4-[4-(2-ethylaminocarbonylamino)ethyl]phenyl-5-fluoro-2,4-pyrimidinediamine], under setting [1], the IC50 was 295 nM. The same measure, in the same setting: then `CCCN(Cc1ccc(Nc2nc(Nc3ccc(S(N)(=O)=O)cc3)ncc2F)cc1)C(N)=O` [III-125, N2-(4-aminosulfonyl)phenyl-N4-[4-(N-carbamoyl-N-propyl)aminomethyl]phenyl-5-fluoro-2,4-pyrimidinediamine], with 836 nM. On to `NS(=O)(=O)c1ccc(Nc2ncc(F)c(Nc3cccc(-c4cnco4)c3)n2)cc1` [IV-3, N2-(4-Aminosulfonylphenyl)-5-fluoro-N4-[3-(1,3-oxazol-5-yl)phenyl]-2,4-pyrimidinediamine], for which the IC50 under setting [2] amounted to 93.2 nM. For the molecule `CNS(=O)(=O)c1cccc(Nc2nc(Nc3cccc(S(N)(=O)=O)c3)ncc2F)c1` [IV-11, N2-(3-Aminosulfonylhenyl)-5-fluoro-N4-[3-(N-methylaminosulfonyl)phenyl]-2,4-pyrimidinediamine], the IC50 under setting [1] came out at 367 nM.

For the molecule `C#CCn1ccc2ccc(Nc3nc(Nc4ccc(C)c(S(N)(=O)=O)c4)ncc3F)cc21` [IX-3, N2-(3-Aminosulfonyl-4-methylphenyl)-5-fluoro-N4-[1-(propyn-3-yl)indol-6-yl]-2,4-pyrimidinediamine], the IC50 under setting [2] came to 115 nM. In the case of `C#CCn1ccc2ccc(Nc3nc(Nc4cccc(S(N)(=O)=O)c4)ncc3F)cc21` [IX-4, N2-(3-Aminosulfonylphenyl)-5-fluoro-N4-[1-(propyn-3-yl)indol-6-yl]-2,4-pyrimidinediamine], the IC50 under setting [2] came to 120 nM. On the same count and under the same terms, then `Cc1ccc(Nc2ncc(F)c(Nc3ccc4c(C(N)=O)c[nH]c4c3)n2)cc1S(N)(=O)=O` [IX-9, N4-[3-(Aminocarbonyl)-1H-indol-6-yl]-N2-(3-aminosulfonyl-4-methylphenyl)-5-fluoro-2,4-pyrimidinediamine], with 8880 nM. Same read-out and setting: the value for `NC(=O)c1c[nH]c2cc(Nc3nc(Nc4ccc(Cl)c(S(N)(=O)=O)c4)ncc3F)ccc12` [IX-10, N4-[3-(Aminocarbonyl)-1H-indol-6-yl]-N2-(3-aminosulfonyl-4-chlorophenyl)-5-fluoro-2,4-pyrimidinediamine] was 6410 nM.

`CC(=O)N1CCN(C(=O)c2ccc(Nc3nc(Nc4cccc(S(N)(=O)=O)c4)ncc3F)cc2)CC1` [IX-23, N4-[4-(1-Acetyl-4-piperizinyl)carbonylphenyl]-N2-(3-Aminosulfonylphenyl)-5-fluoro-2,4-pyrimidinediamine]: the IC50 under setting [1] was 9580 nM. The same measure, in the same setting: the value for `CNS(=O)(=O)c1cc(Nc2ncc(F)c(Nc3ccc(C(=O)N4CCN(C(C)=O)CC4)cc3)n2)ccc1C` [IX-25, N4-[4-(1-Acetyl-4-piperizinyl)carbonylphenyl]-5-fluoro-N2-[3-(N-methylaminosulfony)-4-methylphenyl]-2,4-pyrimidinediamine] was 6310 nM. For `CS(=O)(=O)N1CCN(C(=O)c2ccc(Nc3nc(Nc4cccc(S(N)(=O)=O)c4)ncc3F)cc2)CC1` [IX-29, N2-(3-Aminosulfonylphenyl)-5-fluoro-N4-[4-(1-methanesulfonyl-4-piperizinyl)carbonylphenyl]-2,4-pyrimidinediamine], the IC50 under setting [1] amounted to 3460 nM. Still for that read-out and setting: the value for `CNS(=O)(=O)c1cc(Nc2ncc(F)c(Nc3ccc(C(=O)N4CCN(S(C)(=O)=O)CC4)cc3)n2)ccc1C` [IX-31, 5-Fluoro-N2-[3-(N-methylaminosulfony)-4-methylphenyl]-5-fluoro-N4-[4-(1-methanesulfonyl-4-piperizinyl)carbonylphenyl]-2,4-pyrimidinediamine] was 1400 nM; that for `CNS(=O)(=O)c1cc(Nc2ncc(F)c(Nc3ccc(C(=O)N4CCSCC4)cc3)n2)ccc1C` [IX-33, 5-Fluoro-N2-[3-(N-methylaminosulfony)-4-methylphenyl]-5-fluoro-N4-[4-(4-thiomorpholino)carbonylphenyl]-2,4-pyrimidinediamine] was 521 nM. With `NS(=O)(=O)c1ccc(Nc2ncc(F)c(Nc3ccc(C(=O)N4CCSCC4)cc3)n2)cc1` [IX-36, N2-(4-Aminosulfonylphenyl)-5-fluoro-N4-[4-(4-thiomorpholinyl)carbonylphenyl]-2,4-pyrimidinediamine], the IC50 under setting [2] amounted to 1040 nM. Same read-out and setting: then `NS(=O)(=O)c1cccc(Nc2ncc(F)c(Nc3ccc(C(=O)N4CCS(=O)(=O)CC4)cc3)n2)c1` [IX-37, N2-(3-Aminosulfonylphenyl)-N4-[4-(1,1-dioxo-4-thiomorpholinyl)carbonylphenyl]-5-fluoro-2,4-pyrimidinediamine], with 3700 nM; and `Cc1ccc(Nc2ncc(F)c(Nc3ccc(C(=O)N4CCS(=O)(=O)CC4)cc3)n2)cc1S(N)(=O)=O` [IX-38, N2-(3-Aminosulfonyl-4-methylphenyl)-N4-[4-(1,1-dioxo-4-thiomorpholinyl)carbonylphenyl]-5-fluoro-2,4-pyrimidinediamine], with 2310 nM.

As to `CNS(=O)(=O)c1cc(Nc2ncc(F)c(Nc3ccc(C(=O)N4CCS(=O)(=O)CC4)cc3)n2)ccc1C` [IX-39, N4-[4-(1,1-dioxo-4-thiomorpholinyl)carbonylphenyl]-5-Fluoro-N2-[3-(N-methylaminosulfony)-4-methylphenyl]-2,4-pyrimidinediamine], the IC50 under setting [1] amounted to 1400 nM. With `Cc1ccc(Nc2ncc(F)c(N[C@@H]3CCN(C(=O)CC#N)C3)n2)cc1S(N)(=O)=O` [IX-45, N2-(3-Aminosulfonyl-4-methylphenyl)-N4-[(4R)-1-(2-cyanoacetyl)-pyrrolidin-4-yl)-5-fluoro-2,4-pyrimidinediamine], the IC50 under setting [2] is 3620 nM.

For the molecule `CNS(=O)(=O)c1ccc(Nc2ncc(F)c(Nc3ccc(OC)c(OC)c3)n2)cc1OC` [IX-50, N4-(3,4-Dimethoxyphenyl)-5-fluoro-N2-[4-(N-methyl)aminosulfonyl-3-methoxyphenyl]-2,4-pyrimidinediamine], under setting [2], the IC50 was 179 nM. As for `CNS(=O)(=O)c1ccc(Nc2ncc(F)c(Nc3cc(OC)cc(OC)c3)n2)cc1OC` [IX-51, N4-(3,5-Dimethoxyphenyl)-5-fluoro-N2-[4-(N-methyl)aminosulfonyl-3-methoxyphenyl]-2,4-pyrimidinediamine], under setting [2], the IC50 is 240 nM.

In the case of `CNS(=O)(=O)c1ccc(Nc2ncc(F)c(Nc3ccc(Cl)c(C(F)(F)F)c3)n2)cc1OC` [IX-52, N4-(4-Chloro-3-trifluoromethylphenyl)-5-fluoro-N2-[4-(N-methyl)aminosulfonyl-3-methoxyphenyl]-2,4-pyrimidinediamine], the IC50 under setting [2] came to 117 nM. Still for that read-out and setting: the value for `CNS(=O)(=O)c1ccc(Nc2ncc(F)c(Nc3ccc(OC(F)(F)F)c(Cl)c3)n2)cc1OC` [IX-53, N4-(3-Chloro-4-trifluoromethoxyphenyl)-5-fluoro-N2-[4-(N-methyl)aminosulfonyl-3-methoxyphenyl]-2,4-pyrimidinediamine] was 240 nM; that for `CNS(=O)(=O)c1ccc(Nc2ncc(F)c(Nc3cccc(O)c3)n2)cc1OC` [VI-1, 5-Fluoro-N4-(3-hydroxyphenyl)-N2-[4-(N-methyl)aminosulfonyl-3-methoxyphenyl]-2,4-pyrimidinediamine] was 205 nM.
